Test results from patent US12077557B2, “Puromycin-based probes and methods of use thereof” (The Regents of the University of California, priority 2018, dated 2024).

Columns and labels:
[1] = LC-MS study of reaction of probe with GSH and other substrates; conditions: 25° C.; probe 0.3 mM, GSH 1.0 mM
Description: (§1) MilliQ water was used in all experiments unless otherwise stated. Reaction kinetics of the probes with species of interest and other substrates were investigated by LC-MS (Agilent Technology 6130, Quadrupole LC/MS) coupled with photodiode array for detection (X=275 nm). Confocal microscopy images were recorded on a Zeiss laser scanning microscope 710 with a 40× water-immersion objective lens using Zen 2009 software (Carl Zeiss).
(§2) Peroxymycin-1 and Ctrl-Peroxymycin-1 (0.3 mM), respectively, were dissolved in phosphate buffer (20 mM, pH 7.4)-methanol solution mixture (2:1, v/v) with 3 vol % DMSO and allowed to stand at room temperature. At predetermined time intervals, an aliquot of the solution mixture was taken for LC-MS analysis. Separation was achieved by gradient elution from 5-100% MeOH in water (constant 0.1 vol % formic acid) over 8 min, isocratic with 100% MeOH from 8 to 12 min and returned to initial conditions and equilibrated for 3 minutes. The LC chromatograms were recorded by monitoring absorption at 275 nm.

[2] = system: HeLa cells; assay: Immunostaining and confocal fluorescence imaging of HeLa cells treated with puromycin-based probes; assay type: cell-based, human; conditions: for change of immunofluorescence intensity with incubation time: basal analyte level; for change in fluorescence intensity with paraquat co-incubation: 1 μM compound, paraquat 1 mM; for green immunofluorescence at 0.5 h: basal; for change in fluorescence intensity with H2O2 pretreatment: H2O2 50 μM 2 h pretreatment; for change in immunofluorescence intensity with cysteine or GSH incubation: 1 μM compound and cysteine or GSH 100 μM, 4 h
[3] = system: HeLa cells; assay: Confocal fluorescence imaging of HeLa cells treated with fluorescent H2O2 probe PF2; assay type: cell-based, human
Description: (§3) Human cervical epithelial carcinoma (HeLa), human epidermoid carcinoma (A-431) and human breast carcinoma (MDA-MB-231 and MDA-MB-468) were maintained in DMEM medium (high glucose) supplemented with GlutaMAX and 10 vol % FBS. Human breast carcinoma (MCF-7) was maintained in DMEM medium (high glucose) supplemented with GlutaMAX, 10 vol % FBS, 1 vol % non-essential amino acids and 1% sodium pyruvate. Human breast carcinoma (HS 578T) was maintained in DMEM medium (high glucose) supplemented with GlutaMAX, 10 vol % FBS, 1% sodium pyruvate and insulin (10 μg/mL). Human non-tumorigenic breast epithelial cells (MCF-10A) were maintained in DMEM/F12 (with L-glutamate, HEPES and phenol red) supplemented with 5 vol % horse serum, EGF (20 ng/mL), hydrocortisone (0.5 mg/mL), cholera toxin (100 ng/mL), insulin (10 μg/mL) and 1 vol % penicillin/streptomycin. […]
(§4) Confocal fluorescence cell imaging was performed with a Zeiss laser scanning microscope 710 with a 40× water-immersion objective lens using Zen 2009 software (Carl Zeiss). […] A region of interest (ROI) was created around a single cell, and cellular fluorescence intensity was measured. The reported cellular fluorescence intensity was determined by averaging the measured intensity of 5 different cells from at least 3 different images in triplicate experiments. […]

[4] = Stability of probes in phosphate buffer-methanol mixture by LC-MS; assay type: physicochemical
Description: as §1, §2

[5] = LC-MS study of reaction of probe with H2O2 and other ROS; conditions: 25° C.; probe 0.3 mM, H2O2 0.1 mM
Description: as §1, §2
For the study of the reaction with H2O2, Peroxymycin-1 and Ctrl-Peroxymycin-1 (0.3 mm), respectively, were dissolved in phosphate buffer (20 mM, pH 7.4)-methanol solution mixture (2:1, v/v) with 3 vol % DMSO. H2O2 was then added to the solution mixture (final concentration=0.1 mM), and the reaction mixture was allowed to stand at room temperature. […]

[6] = system: A431 cells; assay: Immunostaining and confocal imaging of A431 cells with stimulation or inhibition of H2O2 or NO production; assay type: cell-based, human; conditions: for change in fluorescence intensity with EGF stimulation: EGF 100 ng/mL 20, 40, 60 min, then 1 μM compound 4 h
Description: Human cervical epithelial carcinoma (HeLa), human epidermoid carcinoma (A-431) and human breast carcinoma (MDA-MB-231 and MDA-MB-468) were maintained in DMEM medium (high glucose) supplemented with GlutaMAX and 10 vol % FBS. Human breast carcinoma (MCF-7) was maintained in DMEM medium (high glucose) supplemented with GlutaMAX, 10 vol % FBS, 1 vol % non-essential amino acids and 1% sodium pyruvate. Human breast carcinoma (HS 578T) was maintained in DMEM medium (high glucose) supplemented with GlutaMAX, 10 vol % FBS, 1% sodium pyruvate and insulin (10 μg/mL). Human non-tumorigenic breast epithelial cells (MCF-10A) were maintained in DMEM/F12 (with L-glutamate, HEPES and phenol red) supplemented with 5 vol % horse serum, EGF (20 ng/mL), hydrocortisone ([…]), cholera toxin (100 ng/mL), insulin (10 μg/mL) and 1 vol % penicillin/streptomycin. Human normal breast epithelial cells (HS 578Bst) were maintained in ATCC Hybri-Care Medium (No. 46-X) supplemented with sodium bicarbonate ([…]), EGF (30 ng/mL) and 10 vol % FBS. All cells were incubated in 5% CO2 humidified air, and subcultured when 80% confluence was reached. For cell-imaging experiments, the cells were plated on 8-well Lab Tek borosilicate chambered coverglass slides (Nunc) or 24-well plates with 12 mm coverslips, and allowed to grow to ca. 60% confluency before performing the cell imaging experiments.
Cells were incubated with the compound (1 μM) for indicated time intervals. The cells were then washed three-times by PBS solution and fixed by 4% paraformaldehyde at room temperature for 10 min. The cells were washed by PBS solution and PBS solution with 0.1 vol %-Triton X-100, followed by incubation with α-puromycin antibody [3RH11] (Kerafast; 1:500, v/v) in PBS solution containing 10 vol % FBS and 0.1 vol % Triton X-100 at 37° C. for 30 min. Subsequently, the cells were washed by PBS solution and PBS solution with 0.1 vol %-Triton X-100, and stained by α-mouse secondary antibody-Alexa Fluor 488 (1:100, v/v) in PBS solution containing 10 vol % FBS and 0.1 vol % Triton X-100 at 37° C. for 30 min. The cells were then washed by PBS solution and stained by Hoechst 33342 at room temperature for 10 min. After that, the cells were washed three-times by PBS solution and imaged by confocal fluorescence microscopy.
EGF stimulation was carried out by pretreatment of A431 cells by EGF (100 ng/mL) for 20, 40 and 60 min, then washed by PBS and incubated with Peroxymycin-1 (1 μM) for 4 h.
For the study with L-NAME, A431 cells were pretreated with L-NAME (100 μM) for 25 min, then washed by PBS and incubated with EGF (100 ng/mL) for 40 min, followed by washing and incubation with Peroxymycin-1 (1 μM) for 4 h.
For the DPI experiment, the cells were pretreated with a mixture of DPI (5 μM) and EGF (100 ng/mL) for 40 min, followed by incubation with a mixture of DPI (5 μM) and Peroxymycin-1 (1 μM) for 4 h.
For the inhibition of H2O2 production by gp91 Tat peptide, the cells were pretreated with gp91 Tat peptide (100 μM) for 30 min, then incubated with a mixture of gp91 Tat peptide (100 μM) and Peroxymycin-1 (1 μM) for 4 h.
Confocal fluorescence cell imaging was performed with a Zeiss laser scanning microscope 710 with a 40× water-immersion objective lens using Zen 2009 software (Carl Zeiss). Hoechst 33342 was excited with a 405 nm diode laser, and emission was collected using a META detector between 450 and 500 nm. Alexa Fluor 488 was excited with 488 nm with an Ar laser, and emission was collected using a META detector between 500 and 625 nm. Alexa Fluor 647 was excited with a 633 nm HeNe laser, and emission was collected using a META detector between 638 and 647 nm. PBS solution was used as the imaging buffer for all the confocal experiments. Image analysis was performed using ImageJ. A region of interest (ROI) was created around a single cell, and cellular fluorescence intensity was measured. […]

[7] = system: panel of related cancer and non-tumorigenic breast cell lines; assay: H2O2 profiling across a panel of cancer and non-tumorigenic breast cell lines; assay type: cell-based, human; conditions: 1 μM, 4 h; MDA-MB-231, HS 578T, MDA-MB-468, MCF-7, MCF-10A, HS 578Bst
Description: as §3, with “μg/mL).” for “μg/mL). Human non-tumorigenic breast epithelial cells (MCF-10A) were maintained in DMEM/F12 (with L-glutamate, HEPES and phenol red) supplemented with 5 vol % horse serum, EGF (20 ng/mL), hydrocortisone (0.5 mg/mL), cholera toxin (100 ng/mL), insulin (10 μg/mL) and 1 vol % penicillin/streptomycin.”
Cells were incubated with the compound (1 μM) for indicated time intervals. […] After that, the cells were washed three-times by PBS solution and imaged by confocal fluorescence microscopy.
as §4

[8] = LC-MS study of reaction of probe with H2S and other substrates; conditions: 25° C.; probe 0.3 mM, H2S 1 mM
Description: as §1, §2

[9] = H2S 100 μM 30 min, then 1 μM compound 4 h

COc1ccc(CC(NC(=O)OCCSSCCOC(C)=O)C(=O)NC2C(CO)OC(n3cnc4c(N(C)C)ncnc43)C2O)cc1 (stereo not shown) [GSH-Puro-1]
pseudo-first-order rate constant of the reaction with GSH [1]: 9.4e-05 s⁻¹
relative fluorescence intensity compared to cells treated by puromycin ([2]; 1 μM, 4 h incubation): 69%
relative fluorescence intensity compared to cells treated by puromycin ([2]; 1 μM, 6 h incubation): 79%
change of immunofluorescence intensity with incubation time ([2]; 1 μM, HeLa cells): Time-dependent increase in immunofluorescence intensity
fluorescence with BSO pretreatment compared to no pretreatment ([2]; BSO 1 mM 3 h, then probe 2 h): significantly weaker fluorescence
immunofluorescence with GSH or lipoic acid pretreatment compared to no pretreatment ([2]; GSH 100 μM 24 h or lipoic acid 1.8 mM 24 h, then probe 2 h): stronger immunofluorescence

COc1ccc2c(c1)Oc1cc(B3OC(C)(C)C(C)(C)O3)ccc1C21OC(=O)c2ccccc21 (stereo not shown) [PF2, Peroxyfluor-2]
cellular fluorescence (basal H2O2) ([3]; 10 μM for 0.5, 4 and 6 h, washed): negligible fluorescence
change in signal in response to Nox2 inhibition by gp91 Tat peptide ([3]; gp91 Tat peptide 100 μM 30 min, PF2 10 μM 4 h): failed to show statistically significant decreases in signal

COc1ccc(CC(NC(=O)OCc2ccc(B3OC(C)(C)C(C)(C)O3)cc2)C(=O)NC2C(CO)OC(n3cnc4c(N(C)C)ncnc43)C2O)cc1 (stereo not shown) [Peroxymycin-1]
stability in aqueous solution buffered to physiological pH ([4]; 0.3 mM probe, phosphate buffer (20 mM, pH 7.4)-methanol (2:1, v/v), 3 vol % DMSO, room temperature): good stability
puromycin generation in the absence of H2O2 ([4]; control experiment, LC-MS): negligible puromycin generation
pseudo-first-order rate constant of the reaction with H2O2 [5]: 0.001 s⁻¹
change in fluorescence intensity with paraquat co-incubation [2]: significant increases in fluorescence intensity
fluorescence intensity with H2O2 co-incubation relative to cells treated with probe only ([2]; 1 μM probe 4 h, H2O2 50 μM co-incubation for 2 h): 4.3 times
relative fluorescence intensity compared to cells treated by puromycin ([2]; 1 μM, 4 h incubation): 30.5%
green immunofluorescence at 0.5 h ([2]; 1 μM, HeLa cells): no significant green fluorescence
change of immunofluorescence intensity with incubation time ([2]; 1 μM, HeLa cells): increases in fluorescence intensity
change in fluorescence intensity with H2O2 pretreatment ([2]; then 1 μM compound 4 h): statistically significant increase in fluorescence intensity
change in fluorescence intensity with EGF stimulation [6]: statistically significant increase in fluorescence intensity
change in immunofluorescent signal with DPI incubation ([6]; EGF 100 ng/mL 40 min, DPI 5 μM, probe 1 μM 4 h): statistically significant decrease in immunofluorescent signal
effect of L-NAME on EGF-stimulated immunofluorescence ([6]; L-NAME 100 μM 25 min, EGF 100 ng/mL 40 min, probe 1 μM 4 h): does not block EGF-stimulated increases
immunofluorescence with gp91 Tat peptide compared to controls without inhibitor ([6]; gp91 Tat peptide 100 μM 30 min, probe 1 μM 4 h): markedly lower levels
order of fluorescence intensities normalized to puromycin-treated cells [7]: metastatic/invasive cancer cells>cancer cells>non-tumorigenic cells

COc1ccc(CC(NC(=O)OCCc2ccc(B3OC(C)(C)C(C)(C)O3)cc2)C(=O)NC2C(CO)OC(n3cnc4c(N(C)C)ncnc43)C2O)cc1 (stereo not shown) [Ctrl-Peroxymycin-1]
change in fluorescence intensity with H2O2 pretreatment ([2]; then 1 μM compound 4 h): lack of signal
change in fluorescence intensity with EGF stimulation [6]: no observable differences in immunofluorescence

COc1ccc(CC(NC(=O)OCc2ccc(N=[N+]=[N-])cc2)C(=O)NC2C(CO)OC(n3cnc4c(N(C)C)ncnc43)C2O)cc1 (stereo not shown) [H2S-Puro-1]
pseudo-first-order rate constant of the reaction with H2S [8]: 6.3e-05 s⁻¹
change in immunofluorescence intensity with cysteine or GSH incubation [2]: significant increase in immunofluorescence intensity
relative fluorescence intensity compared to cells treated by puromycin ([2]; 1 μM, 4 h incubation): around 5%
change of immunofluorescence intensity with incubation time ([2]; 1 μM, HeLa cells): time-dependent increase in green fluorescence intensity
immunofluorescence with H2S pretreatment relative to no pretreatment [2, 9]: 1.4 fold

COc1ccc(C[C@H](N)C(=O)N[C@H]2[C@@H](O)[C@H](n3cnc4c(N(C)C)ncnc43)O[C@@H]2CO)cc1 [puromycin]
change in immunofluorescence intensity with cysteine or GSH incubation [2]: negligible change in fluorescence intensity
change in fluorescence intensity with paraquat co-incubation [2]: no significant changes in fluorescence
time of saturation of green fluorescence ([2]; 1 μM, HeLa cells): 1 h
green immunofluorescence at 0.5 h ([2]; 1 μM, HeLa cells): strong green fluorescence
change in fluorescence intensity with H2O2 pretreatment ([2]; then 1 μM compound 4 h): lack of observed changes in fluorescence intensity
change in immunofluorescence intensity by H2S pretreatment [2, 9]: No significant change in immunofluorescence intensity
change in immunofluorescence intensity with GSH, lipoic acid or BSO pretreatment ([2]; puromycin control): no significant change in immunofluorescence intensity
change in fluorescence intensity with EGF stimulation [6]: do not show any significant changes in fluorescence intensity
